Experimental data: PubChem BioAssay AID248 (DTP/NCI, 2004)
Several values for one entry are separate records, joined by “and”; a condition that tells them apart may be missing. Equal values may be shown once. Toxic doses and inconclusive results are not listed. Rule as the data show it: active = T/C of 150% or more; inactive = T/C below 125%.

Tested on: L1210 leukemia ip in BDF1 mice, survival T/C
Experiment: NCI In Vivo Anticancer Drug Screen. Data for tumor model L1210 Leukemia (intraperitoneal) in B6D2F1 (BDF1) mice
Conditions: endpoint: mean survival time, higher = longer survival
Method in brief: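 Value reflects the ratio of survival in compound-treated mice to survival in vehicle-treated controls, with both groups carrying the same transplanted tumor.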

[1] = dose: 100.0 mg/kg/injection, schedule: Q04DX003 (ip), vehicle: Klucel (hydroxypropylcellulose) (HPC)
[2] = dose: 200.0 mg/kg/injection, schedule: Q04DX003 (ip), vehicle: Klucel (hydroxypropylcellulose) (HPC)
[3] = dose: 100.0 mg/kg/injection, schedule: Q04DX003 (ip), vehicle: saline
[4] = dose: 100.0 mg/kg/injection, schedule: Q04DX002 (ip), vehicle: Klucel (hydroxypropylcellulose) (HPC)
[5] = dose: 200.0 mg/kg/injection, schedule: Q04DX002 (ip), vehicle: Klucel (hydroxypropylcellulose) (HPC)
[6] = dose: 200.0 mg/kg/injection, schedule: Q04DX003 (ip), vehicle: saline
[7] = dose: 400.0 mg/kg/injection, schedule: Q04DX003 (ip), vehicle: saline

Measured: T/C

CCC1(O)CC(OC2CC(N(C)C)C(OC3CC4OC5CC(=O)C(C)OC5OC4C(C)O3)C(C)O2)c2c(cc3c(c2O)C(=O)c2c(O)ccc(O)c2C3=O)C1C(=O)OC (centres undefined)
inactive: dose: 0.01 mg/kg/injection, schedule: Q01DX Z (ip), vehicle: saline 108 % of control and 88 % of control | dose: 0.16 mg/kg/injection, schedule: Q01DX Z (ip), vehicle: saline 98 % of control and 88 % of control | dose: 0.18 mg/kg/injection, schedule: Q03HX008 (ip), vehicle: saline with Tween-80 94 % of control and 90 % of control | dose: 0.18 mg/kg/injection, schedule: Q03HX024 (ip), vehicle: saline with Tween-80 93 % of control and 102 % of control | dose: 0.25 mg/kg/injection, schedule: Q01DX Z (ip), vehicle: other 103 % of control | dose: 0.25 mg/kg/injection, schedule: Q01DX Z (ip), vehicle: saline 94 % of control and 105 % of control | dose: 0.37 mg/kg/injection, schedule: Q03HX008 (ip), vehicle: saline with Tween-80 94 % of control and 100 % of control | dose: 0.37 mg/kg/injection, schedule: Q03HX024 (ip), vehicle: saline with Tween-80 99 % of control and 102 % of control | dose: 0.5 mg/kg/injection, schedule: Q01DX Z (ip), vehicle: other 112 % of control | dose: 0.5 mg/kg/injection, schedule: Q01DX Z (ip), vehicle: saline 113 % of control and 120 % of control | dose: 0.75 mg/kg/injection, schedule: Q01DX009 (ip), vehicle: saline with Tween-80 98 % of control | dose: 0.75 mg/kg/injection, schedule: Q03HX008 (ip), vehicle: saline with Tween-80 105 % of control and 109 % of control | dose: 0.75 mg/kg/injection, schedule: Q03HX024 (ip), vehicle: saline with Tween-80 105 % of control and 107 % of control | dose: 1.0 mg/kg/injection, schedule: Q01DX015 (ip), vehicle: saline 123 % of control | dose: 1.0 mg/kg/injection, schedule: Q01DX Z (ip), vehicle: other 123 % of control | dose: 1.1 mg/kg/injection, schedule: Q04DX003 (ip), vehicle: saline 107 % of control | dose: 1.25 mg/kg/injection, schedule: Q04DX003 (ip), vehicle: saline 106 % of control | dose: 1.5 mg/kg/injection, schedule: Q01DX001 (ip), vehicle: saline with Tween-80 93 % of control and 95 % of control | dose: 1.5 mg/kg/injection, schedule: Q01DX009 (ip), vehicle: saline with Tween-80 111 % of control | dose: 1.5 mg/kg/injection, schedule: Q01DX Z (ip), vehicle: other 120 % of control | dose: 1.5 mg/kg/injection, schedule: Q03HX008 (ip), vehicle: saline with Tween-80 114 % of control | dose: 1.5 mg/kg/injection, schedule: Q03HX024 (ip), vehicle: saline with Tween-80 98 % of control and 106 % of control | dose: 1.5 mg/kg/injection, schedule: Q04DX003 (ip), vehicle: saline with Tween-80 102 % of control and 105 % of control | dose: 1.7 mg/kg/injection, schedule: Q04DX003 (ip), vehicle: saline 110 % of control | dose: 1.8 mg/kg/injection, schedule: Q01DX015 (ip), vehicle: saline 91 % of control | dose: 2.0 mg/kg/injection, schedule: Q01DX Z (ip), vehicle: other 116 % of control | dose: 2.5 mg/kg/injection, schedule: Q04DX003 (ip), vehicle: saline 111 % of control | dose: 2.6 mg/kg/injection, schedule: Q04DX003 (ip), vehicle: saline 110 % of control | dose: 2.7 mg/kg/injection, schedule: Q01DX001 (ip), vehicle: saline 104 % of control and 120 % of control | dose: 3.0 mg/kg/injection, schedule: Q01DX001 (ip), vehicle: saline with Tween-80 93 % of control and 99 % of control | dose: 3.0 mg/kg/injection, schedule: Q01DX009 (ip), vehicle: saline with Tween-80 100 % of control | dose: 3.0 mg/kg/injection, schedule: Q04DX003 (ip), vehicle: saline with Tween-80 107 % of control and 108 % of control | dose: 4.0 mg/kg/injection, schedule: Q01DX001 (ip), vehicle: saline 114 % of control | dose: 4.0 mg/kg/injection, schedule: Q04DX003 (ip), vehicle: saline 124 % of control | dose: 6.0 mg/kg/injection, schedule: Q01DX001 (ip), vehicle: saline with Tween-80 99 % of control and 106 % of control | dose: 6.0 mg/kg/injection, schedule: Q01DX001 (ip), vehicle: saline 119 % of control | dose: 6.0 mg/kg/injection, schedule: Q04DX003 (ip), vehicle: saline with Tween-80 113 % of control and 115 % of control and 117 % of control | dose: 9.0 mg/kg/injection, schedule: Q01DX001 (ip), vehicle: saline 110 % of control | dose: 9.0 mg/kg/injection, schedule: Q04DX003 (ip), vehicle: saline with Tween-80 97 % of control | dose: 10.0 mg/kg/injection, schedule: Q04DX003 (ip), vehicle: saline 87 % of control | dose: 12.0 mg/kg/injection, schedule: Q01DX001 (ip), vehicle: saline with Tween-80 110 % of control and 122 % of control | dose: 12.0 mg/kg/injection, schedule: Q04DX003 (ip), vehicle: saline with Tween-80 105 % of control

CCOC(=O)CCC(C)(c1ccc(O)cc1)c1ccc(O)cc1
inactive: dose: 50.0 mg/kg/injection, schedule: Q01DX009 (ip), vehicle: saline with Tween-80 98 % of control | dose: 50.0 mg/kg/injection, schedule: Q04DX003 (ip), vehicle: saline with Tween-80 93 % of control | dose: 100.0 mg/kg/injection, schedule: Q01DX009 (ip), vehicle: saline with Tween-80 96 % of control | dose: 100.0 mg/kg/injection, schedule: Q04DX003 (ip), vehicle: saline with Tween-80 93 % of control | dose: 200.0 mg/kg/injection, schedule: Q01DX009 (ip), vehicle: saline with Tween-80 96 % of control | dose: 200.0 mg/kg/injection, schedule: Q04DX003 (ip), vehicle: saline with Tween-80 102 % of control

[O]=[Nb]
inactive: dose: 2.5 mg/kg/injection, schedule: Q01DX009 (ip), vehicle: saline with Tween-80 95 % of control | dose: 5.0 mg/kg/injection, schedule: Q01DX009 (ip), vehicle: saline with Tween-80 96 % of control | dose: 10.0 mg/kg/injection, schedule: Q01DX009 (ip), vehicle: saline with Tween-80 97 % of control

Cc1cc(S(=O)(=O)F)ccc1NC(=O)NCc1ccc([N+](=O)[O-])cc1Cl
inactive: [1] 112 % of control | [2] 101 % of control

O=C1NC(=O)C(Cl)(c2ccccc2)C(=O)N1
inactive: dose: 25.0 mg/kg/injection, schedule: Q04DX003 (ip), vehicle: saline 99 % of control | dose: 50.0 mg/kg/injection, schedule: Q04DX003 (ip), vehicle: saline 87 % of control | [3] 96 % of control

O=C(COc1ccc(Cl)c(Cl)c1)NCCc1ccncc1
inactive: dose: 50.0 mg/kg/injection, schedule: Q04DX002 (ip), vehicle: Klucel (hydroxypropylcellulose) (HPC) 103 % of control | [4] 118 % of control | [5] 111 % of control

CC(=O)OCC1OC(OCC2OC(Sc3ccccc3)C(OC(C)=O)C(OC(C)=O)C2OC(C)=O)C(OC(C)=O)C(OC(C)=O)C1OC(C)=O (centres undefined)
inactive: [4] 89 % of control | [5] 86 % of control | dose: 400.0 mg/kg/injection, schedule: Q04DX002 (ip), vehicle: Klucel (hydroxypropylcellulose) (HPC) 86 % of control

O=S(=O)(c1ccccc1)C1CC(Cl)C1 (centres undefined)
inactive: [3] 109 % of control | [6] 98 % of control | [7] 97 % of control

NC(=O)CC(NC(=O)OCc1ccccc1)C(N)=O (centres undefined)
inactive: [1] 93 % of control | [2] 87 % of control | dose: 400.0 mg/kg/injection, schedule: Q04DX003 (ip), vehicle: Klucel (hydroxypropylcellulose) (HPC) 90 % of control

COc1cc2ccc(CC(=O)NCc3ccccc3)cc2cc1OC
inactive: dose: 100.0 mg/kg/injection, schedule: Q01DX009 (ip), vehicle: saline 94 % of control | [3] 91 % of control | dose: 200.0 mg/kg/injection, schedule: Q01DX009 (ip), vehicle: saline 89 % of control | [6] 86 % of control | dose: 400.0 mg/kg/injection, schedule: Q01DX009 (ip), vehicle: saline 101 % of control | [7] 101 % of control

O=C([S][Ge]([c]1ccccc1)([c]1ccccc1)[c]1ccccc1)c1ccc([N+](=O)[O-])cc1
inactive: dose: 100.0 mg/kg/injection, schedule: Q01DX009 (ip), vehicle: Klucel (hydroxypropylcellulose) (HPC) 114 % of control | dose: 200.0 mg/kg/injection, schedule: Q01DX009 (ip), vehicle: Klucel (hydroxypropylcellulose) (HPC) 92 % of control

CC(C)(C)NC(=O)Nc1cccc2c(O)cccc12
inactive: dose: 100.0 mg/kg/injection, schedule: Q04DX002 (ip), vehicle: saline with Tween-80 95 % of control | dose: 200.0 mg/kg/injection, schedule: Q04DX002 (ip), vehicle: saline with Tween-80 95 % of control | dose: 400.0 mg/kg/injection, schedule: Q04DX002 (ip), vehicle: saline with Tween-80 98 % of control
